Key:
[1] = pKa determination for the photostationary state (Z-enriched) by UV-Vis spectroscopy; format: physicochemical; conditions: apparent acidity constant of the cationic Z form as present in the photostationary state (88–97% Z) after 254 nm irradiation; water
Source text: (§1) Having confirmed the photochemical behavior of the protonated forms, we next explored their light-responsiveness in the deprotonated state. […] To probe whether Z-P a–c could nonetheless be generated indirectly, we explored a consecutive photoisomerization–deprotonation sequence. Thus, E-P a–cH^+ was first irradiated at 254 nm and pH 6 to enrich the Z population, followed by immediate adjustment of the solution to pH 13. Under these conditions, transient spectroscopic features were observed, consistent with the kinetic trapping of the metastable Z-P a–c species. […] These spectroscopic observations enabled the estimation of virtual pK a values for the Z-enriched solutions (Table and Figures S163–168, SI1), which confirmed the reduced acidity of the NH group in the Z-isomers, presumably arising from intramolecular hydrogen-bond formation.
6. Determination of pK a values for the PSS by UV-Vis spectroscopy.
The concentration of P a-cH·Cl was kept constant at appropriate values in the 10-20 µM range, and that of the phosphate buffer at 20 mM. The absorption measurements of the corresponding air-equilibrated phosphate buffered aqueous solutions were carried out at room temperature (298 K), in quartz cuvettes with 1 cm optical pathlength. For the kinetic trapping of the deprotonated Z-isomers of P a-cH·Cl, a solution of the corresponding salt in phosphate buffered solution at a conveniently acidic pH/pD was irradiated at 254 nm until reaching the PSS. Then, the pH of the solution was in each case adjusted to the required final value, by addition of 40 mM stock solutions of phosphate buffer of the required composition. The reported measurements were done as fast as possible to minimize thermal back-isomerization.

[2] = UV-vis absorption spectra in buffered water (λmax, molar absorption coefficient); format: physicochemical; conditions: for ε of the acidic form from absorbance vs concentration: P bH·Cl pH 5, 378 nm, P cH·Cl pH 6, 350 nm, P dH·Cl pH 6, 411 nm; for ε of the basic form from absorbance vs concentration: P bH·Cl pH 12, 456 nm, P cH·Cl pH 12, 433 nm, P dH·Cl pH 13, 500 nm; for λmax (Z-P) / ε (Z-P): Z conjugate base; for λmax (Z-P) / λmax (E-P) / λmax (E-PH^+) / λmax (Z-PH^+): maximum of the longest-wavelength absorption band; for λmax (Z-P) / ε (Z-P) / λmax (E-P) / ε (E-P) / λmax (E-PH^+) / λmax (Z-PH^+) / ε (E-PH^+) / ε (Z-PH^+): water; for ε (Z-P) / ε (E-P): molar absorption coefficient; for ε (Z-P) / ε (E-P) / ε (E-PH^+) / ε (Z-PH^+): error ± 5%; for λmax (E-P) / ε (E-P): conjugate base; for ε (E-PH^+) / ε (Z-PH^+): molar absorption coefficient at λmax
Source text: With the photovermellogens synthesized and fully characterized, their acid–base properties were next investigated by UV–vis spectroscopy to determine whether the pH-responsiveness characteristic of parent vermellogens was retained. Indeed, P a–dH·Cl reproduced the archetypical absorption changes of vermellogens (Figures c and S130–S137, SI1). , In essence, the characteristic intense π–π* absorption bands of the cations undergo a considerable bathochromic shift upon deprotonation (Table ), as also confirmed by our quantum chemical calculations (Figure S2, S2), causing a notable color change from yellow to red. This pronounced shift allowed the estimation of pK a values for E-P a–dH^+ via UV–vis absorption titrations, which, as for other vermellogens, fall within the biologically relevant pH range (Figure c, Table and Figures S130–S137, SI1). Changes in the protonation state were also easily monitored by ^1H NMR spectroscopy, with the gain in electronic density translating in a substantial shielding of resonances of the corresponding conjugate bases E/Z-P a–d (Figure a). As already observed for E-P a–dH^+, the deprotonated species were also thermally stable in the absence of light.
as §1
Figure S132. UV-Vis spectra of P bH·Cl at pH 5 (black) and pH 12 (red) at 20 µM. b) Linear relationship at pH 5 between absorbance at 378 nm and concentration of P bH·Cl (ε = 42265 ± 838 L·mol -1·cm-1). c) Linear relationship at pH 12 between absorbance at 456 nm and concentration of P bH·Cl (ε = 42143 ± 1044 L·mol -1·cm-1).
Figure S133. UV-Vis spectra for the titration of P bH·Cl (20 μM in phosphate buffer solutions in the 4.1-10.6 pH range). b) Absorption of P bH+ at λ = 378 nm plotted against pH. c) Linear fitting […]
Figure S134. UV-Vis spectra of P cH·Cl at pH 6 (black) and pH 12 (red) at 14 µM. b) Linear relationship at pH 6 between absorbance at 350 nm and concentration of P cH·Cl (ε = 49266 ± 1780 L·mol-1·cm-1). c) Linear relationship at pH 12 between absorbance at 433 nm and concentration of P cH·Cl (ε = 46382 ± 1667 L·mol -1·cm-1).
Figure S135.UV-Vis spectra for the titration of P cH·Cl, (14 μM in phosphate buffer solutions in the 5.1-11.7 pH range). b) Absorption of P cH+ at λ = 351 nm plotted against pH. c) Linear fitting […]
Figure S136. UV-Vis spectra of P dH·Cl at pH 6 (red) and pH 13 (black) at 11 µM. b) Linear relationship at pH 6 between absorbance at 411 nm and concentration of P dH·Cl (ε = 65691 ± 2966 L·mol-1·cm-1). c) Linear relationship at pH 13 between absorbance at 500 nm and concentration of P dH·Cl (ε = 69154 ± 3100 L·mol -1·cm-1).
Figure S137. UV-Vis spectra for the titration of P dH·Cl (11 μM in phosphate buffer solutions in the 5.1-11.7 pH range). b) Absorption of P dH+ at λ = 410 nm plotted against pH. c) Linear fitting

| Structure (SMILES) | pK a (PSD) [1] | ε of the acidic form from absorbance vs concentration [2] [L/mol/cm] | ε of the basic form from absorbance vs concentration [2] [L/mol/cm] | λmax (Z-P) [2] [nm] | ε (Z-P) [2] | λmax (E-P) [2] [nm] | ε (E-P) [2] | λmax (E-PH^+) [2] [nm] | λmax (Z-PH^+) [2] [nm] | ε (E-PH^+) [2] | ε (Z-PH^+) [2] |
| --- | --- | --- | --- | --- | --- | --- | --- | --- | --- | --- | --- |
| C[n+]1ccc(NN=CC(=O)c2ccccc2)c2ccccc21 [P bH^+] | 8.8 ± 0.2 | 42265 ± 838 | 42143 ± 1044 | 445 | 13,000 M^–1·cm^–1 | 456 | 42,000 M^–1·cm^–1 | 378 | 384 | 42,000 M^–1·cm^–1 | 36000 M^–1·cm^–1 |
| C[n+]1ccc(-c2ccc(NN=CC(=O)c3ccccc3)cc2)cc1 [P dH^+] |  | 65691 ± 2966 | 69154 ± 3100 |  |  | 500 | 69,000 M^–1·cm^–1 | 411 |  | 66,000 M^–1·cm^–1 |  |
| O=C(C=NNc1cc[n+](-c2ccccc2)cc1)c1ccccc1 [P cH^+] | 9.9 ± 0.1 | 49266 ± 1780 | 46382 ± 1667 | 420 | 15,000 M^–1·cm^–1 | 432 | 46,000 M^–1·cm^–1 | 349 | 359 | 49,000 M^–1·cm^–1 | 43,000 M^–1·cm^–1 |
| C[n+]1ccc(NN=CC(=O)c2ccccc2)cc1 [P aH^+] | 10.4 ± 0.2 |  |  | 420 | 18,000 M^–1·cm^–1 | 429 | 39,000 M^–1·cm^–1 | 342 | 352 | 41,000 M^–1·cm^–1 | 43,000 M^–1·cm^–1 |

Reference: paper PMC13185115, “Photovermellogens: Minimalistic Pyridinium-Based Acylhydrazones with Photoswitchable Basicity for Operation in Aqueous Media” (The Journal of Organic Chemistry, 2026)
